Activity calls are given as the source filed them. No cut-off for these calls is given here.

Format in all cases: functional
Assay [1] is described as follows: Antioxidant activity against ABTS radical assessed as trolox equivalent after 24 hr at pH 7.
The nature of assay [2]: Antioxidant activity against ABTS radical assessed as trolox equivalent at 50 uM after 24 hr at pH 5.5.
Assay [3] is described as follows: Antioxidant activity against ABTS radical assessed as trolox equivalent at 50 uM after 24 hr at pH >5.5.
A short description of assay [4]: Antioxidant activity assessed as ferric ion reduction by 2,4,6-tris(2- pyridyl)-s-triazine-based spectrophotometry.

With `Oc1ccc(/C=C/c2cc(O)cc(O)c2)cc1`, in assay [1], the Activity is 2.7 equiv.

Regarding `O=C/C=C1/C=C(C(=O)O)N[C@H](C(=O)O)C1`, the Activity in assay [1] is 2.7 equiv. Moreover, in assay [2], the outcome was inactive. Further, the result in assay [3] and in assay [4] was Active.

For the origin of these results see ChEMBL document CHEMBL2062404, “Purification and antiradical properties of the structural unit of betalains” (J Nat Prod, 2012).
